Measurements as given in ChEMBL document CHEMBL1828549, “Novel C-4'' modified azithromycin analogs with remarkably enhanced activity against erythromycin-resistant Streptococcus pneumoniae: the synthesis and antimicrobial evaluation” (2011).
Values after ≈ are worked out from the molar mass of the structure shown.

Key:
Format in all cases: functional
Streptococcus pneumoniae [1] = assay: Antibacterial activity against erythromycin-susceptible Streptococcus pneumoniae ATCC 49619 by the broth microdilution method
Streptococcus pneumoniae [2] = assay: Antibacterial activity against erythromycin-resistant Streptococcus pneumoniae B1 expressing erm gene by the broth microdilution method
Staphylococcus aureus [3] = assay: Antibacterial activity against […] Staphylococcus aureus ATCC 29213 by the broth microdilution method
Streptococcus pneumoniae [4] = assay: Antibacterial activity against erythromycin-resistant Streptococcus pneumoniae A22072 expressing mef gene by the broth microdilution method
Staphylococcus aureus [5] = assay: Antibacterial activity against penicillin-resistant Staphylococcus aureus by the broth microdilution method
Staphylococcus aureus [6] = assay: Antibacterial activity against erythromycin-susceptible Staphylococcus aureus ATCC 25923 by the broth microdilution method
Streptococcus pneumoniae [7] = assay: Antibacterial activity against erythromycin-resistant Streptococcus pneumoniae AB11 expressing erm and mef gene by the broth microdilution method

SMILES	MIC (Streptococcus pneumoniae [1]) [µg/mL]	MIC (Streptococcus pneumoniae [2]) [µg/mL]	MIC (Staphylococcus aureus [3]) [µg/mL]	MIC (Streptococcus pneumoniae [4]) [µg/mL]	MIC (Staphylococcus aureus [5]) [µg/mL]	MIC (Staphylococcus aureus [6]) [µg/mL]	MIC (Streptococcus pneumoniae [7]) [µg/mL]
CC[C@H]1OC(=O)[C@H](C)[C@@H](O[C@H]2C[C@@](C)(OC)[C@@H](OC(=O)NNC(=O)c3ccc([N+](=O)[O-])cc3)[C@H](C)O2)[C@H](C)[C@@H](O[C@@H]2O[C@H](C)C[C@H](N(C)C)[C@H]2O)[C@](C)(O)C[C@@H](C)CN(C)[C@H](C)[C@H]2OC(=O)O[C@@]21C	0.25 (≈ 0.255 µM)	16 (≈ 16.3 µM)	4 (≈ 4.07 µM)	1 (≈ 1.02 µM)	4 (≈ 4.07 µM)	4 (≈ 4.07 µM)	32 (≈ 32.6 µM)
CC[C@H]1OC(=O)[C@H](C)[C@@H](O[C@H]2C[C@@](C)(OC)[C@@H](OC(=O)NCCNC(=O)c3ccc(Cl)cc3)[C@H](C)O2)[C@H](C)[C@@H](O[C@@H]2O[C@H](C)C[C@H](N(C)C)[C@H]2O)[C@](C)(O)C[C@@H](C)CN(C)[C@H](C)[C@H]2OC(=O)O[C@@]21C	0.5 (≈ 0.5 µM)	8 (≈ 8 µM)	16 (≈ 16 µM)	1 (≈ 1 µM)	2 (≈ 2 µM)	4 (≈ 4 µM)	32 (≈ 32 µM)
CC[C@H]1OC(=O)[C@H](C)[C@@H](O[C@H]2C[C@@](C)(OC)[C@@H](OC(=O)NCCCCNC(=O)c3ccccc3OC)[C@H](C)O2)[C@H](C)[C@@H](O[C@@H]2O[C@H](C)C[C@H](N(C)C)[C@H]2O)[C@](C)(O)C[C@@H](C)CN(C)[C@H](C)[C@H]2OC(=O)O[C@@]21C	2 (≈ 1.95 µM)	4 (≈ 3.91 µM)	16 (≈ 15.6 µM)	0.5 (≈ 0.489 µM)	32 (≈ 31.3 µM)	4 (≈ 3.91 µM)	16 (≈ 15.6 µM)
CC[C@H]1OC(=O)[C@H](C)[C@@H](O[C@H]2C[C@@](C)(OC)[C@@H](OC(=O)NCCNC(=O)c3ccc(C)cc3)[C@H](C)O2)[C@H](C)[C@@H](O[C@@H]2O[C@H](C)C[C@H](N(C)C)[C@H]2O)[C@](C)(O)C[C@@H](C)CN(C)[C@H](C)[C@H]2OC(=O)O[C@@]21C	1 (≈ 1.02 µM)	8 (≈ 8.17 µM)	16 (≈ 16.3 µM)	0.25 (≈ 0.255 µM)	4 (≈ 4.08 µM)	4 (≈ 4.08 µM)	16 (≈ 16.3 µM)
CC[C@H]1OC(=O)[C@H](C)[C@@H](O[C@H]2C[C@@](C)(OC)[C@@H](OC(=O)NCCNC(=O)c3ccc(OC)cc3)[C@H](C)O2)[C@H](C)[C@@H](O[C@@H]2O[C@H](C)C[C@H](N(C)C)[C@H]2O)[C@](C)(O)C[C@@H](C)CN(C)[C@H](C)[C@H]2OC(=O)O[C@@]21C	4 (≈ 4.02 µM)	32 (≈ 32.2 µM)	16 (≈ 16.1 µM)	4 (≈ 4.02 µM)	4 (≈ 4.02 µM)	4 (≈ 4.02 µM)	64 (≈ 64.3 µM)
CC[C@H]1OC(=O)[C@H](C)[C@@H](O[C@H]2C[C@@](C)(OC)[C@@H](OC(=O)NNC(=O)c3ccc(OC)cc3)[C@H](C)O2)[C@H](C)[C@@H](O[C@@H]2O[C@H](C)C[C@H](N(C)C)[C@H]2O)[C@](C)(O)C[C@@H](C)CN(C)[C@H](C)[C@H]2OC(=O)O[C@@]21C	4 (≈ 4.14 µM)	16 (≈ 16.5 µM)	32 (≈ 33.1 µM)	0.25 (≈ 0.258 µM)	8 (≈ 8.27 µM)	2 (≈ 2.07 µM)	64 (≈ 66.2 µM)
CC[C@H]1OC(=O)[C@H](C)[C@@H](O[C@H]2C[C@@](C)(OC)[C@@H](O)[C@H](C)O2)[C@H](C)[C@@H](O[C@@H]2O[C@H](C)C[C@H](N(C)C)[C@H]2O)[C@](C)(O)C[C@@H](C)C(=O)[C@H](C)[C@@H](O)[C@]1(C)O [ERYTHROMYCIN]	0.03 (≈ 0.0409 µM)	128 (≈ 174 µM)	0.12 (≈ 0.164 µM)	8 (≈ 10.9 µM)	0.25 (≈ 0.341 µM)	0.06 (≈ 0.0818 µM)	256 (≈ 349 µM)
CC[C@H]1OC(=O)[C@H](C)[C@@H](O[C@H]2C[C@@](C)(OC)[C@@H](OC(=O)NNC(=O)c3ccc(Cl)cc3)[C@H](C)O2)[C@H](C)[C@@H](O[C@@H]2O[C@H](C)C[C@H](N(C)C)[C@H]2O)[C@](C)(O)C[C@@H](C)CN(C)[C@H](C)[C@H]2OC(=O)O[C@@]21C	1 (≈ 1.03 µM)	32 (≈ 32.9 µM)	4 (≈ 4.12 µM)	0.25 (≈ 0.257 µM)	16 (≈ 16.5 µM)	2 (≈ 2.06 µM)	64 (≈ 65.9 µM)
CC[C@H]1OC(=O)[C@H](C)[C@@H](O[C@H]2C[C@@](C)(OC)[C@@H](OC(=O)NCCCCNC(=O)c3ccc(Cl)cc3)[C@H](C)O2)[C@H](C)[C@@H](O[C@@H]2O[C@H](C)C[C@H](N(C)C)[C@H]2O)[C@](C)(O)C[C@@H](C)CN(C)[C@H](C)[C@H]2OC(=O)O[C@@]21C	0.5 (≈ 0.487 µM)	8 (≈ 7.78 µM)	8 (≈ 7.78 µM)	1 (≈ 0.973 µM)	64 (≈ 62.3 µM)	4 (≈ 3.89 µM)	16 (≈ 15.6 µM)
CC[C@H]1OC(=O)[C@H](C)[C@@H](O[C@H]2C[C@@](C)(OC)[C@@H](OC(=O)NCCCCNC(=O)c3ccc(F)cc3)[C@H](C)O2)[C@H](C)[C@@H](O[C@@H]2O[C@H](C)C[C@H](N(C)C)[C@H]2O)[C@](C)(O)C[C@@H](C)CN(C)[C@H](C)[C@H]2OC(=O)O[C@@]21C	0.5 (≈ 0.494 µM)	32 (≈ 31.6 µM)	16 (≈ 15.8 µM)	8 (≈ 7.91 µM)	32 (≈ 31.6 µM)	8 (≈ 7.91 µM)	64 (≈ 63.3 µM)
